“And” between values parts separate entries of the source, which are not always exact repeats. Equal entries are not always repeated.
Test: xn = mol fraction of the nth substance listed
Settings: 100 kPa

electrical conductivity (298.15 K, x2 = 0) | electrical conductivity (308.15 K, x2 = 0) | electrical conductivity (318.15 K, x2 = 0) | electrical conductivity (328.15 K, x2 = 0) | electrical conductivity (298.15 K, x1 = 0.0001) | electrical conductivity (308.15 K, x1 = 0.0001) | electrical conductivity (318.15 K, x1 = 0.0001) | electrical conductivity (328.15 K, x1 = 0.0001) | Structure (SMILES)
0.0089 S/m and 0.0093 S/m and 0.0105 S/m | 0.0116 S/m and 0.0126 S/m and 0.0139 S/m | 0.0153 S/m and 0.0171 S/m | 0.0172 S/m and 0.0186 S/m and 0.0212 S/m |  |  |  |  | O + CCCCCCCCCCCC[N+]1(C)CCCC1.O=C([O-])c1ccccc1O
 |  |  |  | 0.0115 S/m | 0.0161 S/m | 0.0185 S/m and 0.0235 S/m | 0.0231 S/m and 0.0293 S/m | CCCCCCCCCCCC[N+]1(C)CCCC1.O=C([O-])c1ccccc1O + O
 |  |  |  |  |  |  | 0.0271 S/m | CCCCCCCCCCCC[N+]1(C)CCCCC1.O=C([O-])c1ccccc1O + O

Source: a compilation of properties of binary mixtures (doi:10.1016/j.fluid.2017.10.015)
